Results from ChEMBL document CHEMBL1150121, “A new cytotoxic calyculinamide derivative, geometricin A, from the Australian sponge Luffariella geometrica” (2002).
Values after ≈ are worked out from the molar mass of the structure shown.

What was measured:
Assay type in all cases: functional
[1] = Growth inhibition of human HM02 cells
HepG2 = test: Growth inhibition of human HepG2 cells
[Chlorella] fusca = Antialgal activity against Chlorella fusca at 50 ug/disk by agar diffusion test; settings: Scenedesmus fuscus; read-out: IZ
Microbotryum violaceum = test: Antifungal activity against Microbotryum violaceum at 50 ug/disk by agar diffusion test; settings: read-out: IZ

Question: With `COC(CC(O)C(C)C(O)C(C)/C=C(C)/C(C)=C/CC/C(C)=C\C(N)=O)[C@H]1O[C@]2(C[C@H](O)[C@H](C)[C@H](C/C=C/c3coc(C)n3)O2)C(C)(C)[C@H]1OP(=O)(O)O` (stereo partly specified) [GEOMETRICIN A] as the compound, how does the GI50 [1] read?
Answer: 1.7 µg/mL (≈ 2.17 µM)

Question: What about the TGI [1] of the same compound?
Answer: 3.2 µg/mL (≈ 4.09 µM)

Question: What about the GI50 (HepG2) of the same compound?
Answer: 2.8 µg/mL (≈ 3.58 µM)

Question: What about the TGI (HepG2) of the same compound?
Answer: 8.8 µg/mL (≈ 11.2 µM)

Question: What about the zone of inhibition at 50 µg/disc ([Chlorella] fusca) of the same compound?
Answer: 5 mm

Question: And the zone of inhibition at 50 µg/disc (Microbotryum violaceum)?
Answer: 5 mm
